Measured values taken from US10479795B2 (Incyte Corporation, priority 2016, dated 2019).
Structures can show the parent of a compound that is named as a salt.

Target: PI3Kγ (p110γ) Recombinant Human Protein (Homo sapiens (Human), UniProt P48736)
Assay: PI3K-γ Scintillation Proximity Assay
Format: biochemical
Settings: read-out: PI3Kγ IC50
Description: [γ-^33P]ATP (10 mCi/mL) and Wheat Germ Agglutinin (WGA) YSi SPA Scintillation Beads was purchased from Perkin-Elmer (Waltham, Mass.). […] PI3Kγ (p110γ) Recombinant Human Protein was purchased from Life technology (Grand Island, N.Y.). ATP, MgCl2, DTT, EDTA, MOPS and CHAPS were purchased from Sigma-Aldrich (St. Louis, Mo.).
The kinase reaction was conducted in polystyrene 384-well Greiner Bio-one white plate from Thermo Fisher Scientific in a final volume of 25 μL. Inhibitors were first diluted serially in DMSO and added to the plate wells before the addition of other reaction components. The final concentration of DMSO in the assay was 2%. The PI3Kγ assay was carried out at room temperature in 20 mM MOPS, pH 6.7, 10 mM MgCl2, 5 mM DTT and CHAPS 0.03%. Reactions were initiated by the addition of ATP, the final reaction mixture consisted of 20 μM PIP2, 2 μM ATP, 0.5 μCi [γ-^33P] […] The final concentration of SPA beads is 1.0 mg/mL. After the plate sealing, plates were shaken overnight at room temperature and centrifuged at 1500 rpm for 10 min, the radioactivity of the product was determined by scintillation counting on Topcount (Perkin-Elmer). IC50 determination was performed by fitting the curve of percent of the solvent control activity versus the log of the inhibitor concentration using the GraphPad Prism 6.0 software.

Chain of PI3Kγ (p110γ) Recombinant Human Protein (P48736 whole entry): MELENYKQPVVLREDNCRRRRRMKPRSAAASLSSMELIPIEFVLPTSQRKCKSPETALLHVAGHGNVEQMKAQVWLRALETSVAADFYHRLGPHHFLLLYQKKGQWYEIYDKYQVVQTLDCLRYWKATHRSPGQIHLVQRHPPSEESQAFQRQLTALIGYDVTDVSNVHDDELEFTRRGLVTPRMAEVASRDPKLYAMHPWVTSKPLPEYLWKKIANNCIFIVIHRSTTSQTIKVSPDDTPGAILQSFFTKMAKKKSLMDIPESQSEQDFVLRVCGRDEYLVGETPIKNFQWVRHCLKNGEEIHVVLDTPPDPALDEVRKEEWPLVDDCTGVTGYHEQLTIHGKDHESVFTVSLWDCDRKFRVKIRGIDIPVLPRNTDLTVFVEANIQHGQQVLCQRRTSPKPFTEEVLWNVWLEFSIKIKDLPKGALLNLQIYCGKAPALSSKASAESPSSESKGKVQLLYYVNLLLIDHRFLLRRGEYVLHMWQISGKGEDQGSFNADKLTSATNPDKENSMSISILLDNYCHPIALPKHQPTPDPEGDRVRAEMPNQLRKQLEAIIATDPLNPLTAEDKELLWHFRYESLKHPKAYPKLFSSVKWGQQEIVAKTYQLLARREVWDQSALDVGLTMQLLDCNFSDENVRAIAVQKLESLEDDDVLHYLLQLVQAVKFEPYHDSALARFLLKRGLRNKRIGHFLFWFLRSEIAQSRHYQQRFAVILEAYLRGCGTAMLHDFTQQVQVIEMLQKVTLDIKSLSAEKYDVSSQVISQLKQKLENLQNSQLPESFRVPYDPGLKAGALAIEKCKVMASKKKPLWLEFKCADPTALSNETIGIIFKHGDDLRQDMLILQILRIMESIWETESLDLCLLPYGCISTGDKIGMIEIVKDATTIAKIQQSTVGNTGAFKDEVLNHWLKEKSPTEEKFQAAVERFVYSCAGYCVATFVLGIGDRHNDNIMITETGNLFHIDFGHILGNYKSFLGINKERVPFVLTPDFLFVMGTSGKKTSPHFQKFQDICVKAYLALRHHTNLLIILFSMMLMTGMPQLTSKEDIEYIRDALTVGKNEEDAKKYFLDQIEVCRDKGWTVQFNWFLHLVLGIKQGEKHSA

Compound	IC50
Cc1ccc(S(=O)(=O)NC(C)(C)CN2CCCC2)cc1-c1cnc2c(N)ncnn12 [Example 239, 3-(4-aminoimidazo[2,1-f][1,2,4]triazin-7-yl)-4-methyl-N-(2-methyl-1-(pyrrolidin-1-yl)propan-2-yl)benzenesulfonamide]	500 to 2000 nM
Cc1ccc(S(=O)(=O)NC23CCCC(C(C)O)(C2)C3)cc1-c1cnc2c(N)ncnn12 (stereo not shown) [Example 521, 3-(4-aminoimidazo[2,1-f][1,2,4]triazin-7-yl)-N-(5-(1-hydroxyethyl)bicyclo[3.1. 1]heptan-1-yl)-4-methylbenzenesulfonamide trifluoroacetate]	< 100 nM
Cc1ccc(S(=O)(=O)NC23CCCC(C(C)N4CC(C#N)C4)(C2)C3)cc1-c1cnc2c(N)ncnn12 (stereo not shown) [Example 522, 3-(4-Aminoimidazo[2,1-f][1,2,4]triazin-7-yl)-N-(5-(1-(3-cyanoazetidin-1-yl)ethyl)bicyclo[3.1.1]heptan-1-yl)-4-methylbenzenesulfonamide trifluoroacetate]	< 100 nM
Cc1ccc(S(=O)(=O)NC23CC(CN(C)C2)C3)cc1-c1cnc2c(N)ncnn12 [Example 523, 3-(4-Aminoimidazo[2,1-f][1,2,4]triazin-7-yl)-4-methyl-N-(3-methyl-3-azabicyclo[3.1.1]heptan-1-yl)benzenesulfonamide trifluoroacetate]	< 100 nM
Cc1ccc(S(=O)(=O)NC23CC(CN(C(C)C)C2)C3)cc1-c1cnc2c(N)nc(C(F)(F)F)nn12 [Example 524, 3-(4-Amino-2-(trifluoromethyl)imidazo[2,1-f][1,2,4]triazin-7-yl)-N-(3-isopropyl-3-azabicyclo[3.1.1]heptan-1-yl)-4-methylbenzenesulfonamide trifluoroacetate]	< 100 nM
Cc1ccc(S(=O)(=O)NC23CC(CN(C4CCC4)C2)C3)cc1-c1cnc2c(N)ncnn12 [Example 525, 3-(4-Aminoimidazo[2,1-f][1,2,4]triazin-7-yl)-N-(3-cyclobutyl-3-azabicyclo[3.1.1]heptan-1-yl)-4-methylbenzenesulfonamide trifluoroacetate]	100 to 500 nM
Cc1ccc(S(=O)(=O)NC2(C)CCCN(C)C2)cc1-c1cnc2c(N)nc(C(F)(F)F)nn12 (stereo not shown) [Example 526, 3-(4-Amino-2-(trifluoromethyl)imidazo[2,1-f][1,2,4]triazin-7-yl)-N-(1,3-dimethylpiperidin-3-yl)-4-methylbenzenesulfonamide trifluoroacetate]	< 100 nM
Cc1ccc(S(=O)(=O)NC2(C)CCCN(C(C)C)C2)cc1-c1cnc2c(N)nc(C(F)(F)F)nn12 (stereo not shown) [Example 527, 3-(4-Amino-2-(trifluoromethyl)imidazo[2,1-f][1,2,4]triazin-7-yl)-N-(1-isopropyl-3-methylpiperidin-3-yl)-4-methylbenzenesulfonamide trifluoroacetate]	< 100 nM
Cc1ccc(S(=O)(=O)NC2(C)CCN(C)CC2)cc1-c1cnc2c(N)nc(C(F)(F)F)nn12 [Example 528, 3-(4-Amino-2-(trifluoromethyl)imidazo[2,1-f][1,2,4]triazin-7-yl)-N-(1,4-dimethylpiperidin-4-yl)-4-methylbenzenesulfonamide trifluoroacetate]	< 100 nM
Cc1ccc(S(=O)(=O)NC2(C)CCN(C3CC(C#N)C3)CC2)cc1-c1cnc2c(N)nc(C(F)(F)F)nn12 (stereo not shown) [Example 529, 3-(4-Amino-2-(trifluoromethyl)imidazo[2,1-f][1,2,4]triazin-7-yl)-N-(1-(3-cyanocyclobutyl)-4-methylpiperidin-4-yl)-4-methylbenzenesulfonamide trifluoroacetate]	100 to 500 nM
Cc1ccc(S(=O)(=O)NC2(C)CCN(C3CCOC3)CC2)cc1-c1cnc2c(N)nc(C(F)(F)F)nn12 (stereo not shown) [Example 530, 3-(4-Amino-2-(trifluoromethyl)imidazo[2,1-f][1,2,4]triazin-7-yl)-4-methyl-N-(4-methyl-1-(tetrahydrofuran-3-yl)piperidin-4-yl)benzenesulfonamide trifluoroacetate]	100 to 500 nM
Cc1ccc(S(=O)(=O)NC2(C)CNC2)cc1-c1cnc2c(N)nc(C(F)(F)F)nn12 [Example 531, 3-(4-Amino-2-(trifluoromethyl)imidazo[2,1-f][1,2,4]triazin-7-yl)-4-methyl-N-(3-methylazetidin-3-yl)benzenesulfonamide trifluoroacetate]	< 100 nM
Cc1ccc(S(=O)(=O)NC2(C)CN(C)C2)cc1-c1cnc2c(N)nc(C(F)(F)F)nn12 [Example 532, 3-(4-Amino-2-(trifluoromethyl)imidazo[2,1-f][1,2,4]triazin-7-yl)-N-(1,3-dimethylazetidin-3-yl)-4-methylbenzenesulfonamide]	< 100 nM
Cc1ccc(S(=O)(=O)NC2(C)CCN(C)C2)cc1-c1cnc2c(N)nc(C(F)(F)F)nn12 (stereo not shown) [Example 533, 3-(4-Amino-2-(trifluoromethyl)imidazo[2,1-f][1,2,4]triazin-7-yl)-N-(1,3-dimethylpyrrolidin-3-yl)-4-methylbenzenesulfonamide trifluoroacetate]	< 100 nM
Cc1ccc(S(=O)(=O)NC23C4C5C2C2C3C4C52C#N)cc1-c1cnc2c(N)ncnn12 (stereo not shown) [Example 534, 3-(4-Aminoimidazo[2,1-f][1,2,4]triazin-7-yl)-N-(4-cyanocuban-1-yl)-4-methylbenzenesulfonamide trifluoroacetate]	< 100 nM
Cc1ccc(S(=O)(=O)NC23C4C5C2C2C3C4C52C(C)(C)O)cc1-c1cnc2c(N)ncnn12 (stereo not shown) [Example 535, 3-(4-Aminoimidazo[2,1-f][1,2,4]triazin-7-yl)-N-(4-(2-hydroxypropan-2-yl)cuban-1-yl)-4-methylbenzenesulfonamide trifluoroacetate]	< 100 nM

Further lines, results first:

IC50	Compound
< 100 nM	Cc1ccc(S(=O)(=O)N2CCn3ncc(C#N)c3C2)cc1-c1cnc2c(N)ncnn12 [Example 240, 5-((3-(4-aminoimidazo[2,1-f][1,2,4]triazin-7-yl)-4-methylphenyl)sulfonyl)-4,5,6,7-tetrahydropyrazolo[1,4-a]pyrazine-3-carbonitrile]
< 100 nM	Cc1ccc(S(=O)(=O)N2CCn3cnc(C(=O)NCC(F)(F)F)c3C2)cc1-c1cnc2c(N)ncnn12 [Example 241, 7-((3-(4-aminoimidazo[2,1-f][1,2,4]triazin-7-yl)-4-methylphenyl)sulfonyl)-N-(2,2,2-trifluoroethyl)-5,6,7,8-tetrahydroimidazo[1,5-a]pyrazine-1-carboxamide]
< 100 nM	Cc1ccc(S(=O)(=O)Nc2ccc(C(=O)N3CC(O)C3)nc2)cc1-c1cnc2c(N)ncnn12 [Example 242, 3-(4-aminoimidazo[2,1-f][1,2,4]triazin-7-yl)-N-(6-(3-hydroxyazetidine-1-carbonyl)pyridin-3-yl)-4-methylbenzenesulfonamide]
< 100 nM	Cc1ccc(S(=O)(=O)Nc2cc3cn[nH]c3cn2)cc1-c1cnc2c(N)ncnn12 [Example 243, 3-(4-aminoimidazo[2,1-f][1,2,4]triazin-7-yl)-4-methyl-N-(1H-pyrazolo[3,4-c]pyridin-5-yl)benzenesulfonamide]
< 100 nM	CC(=O)Nc1ccc(NS(=O)(=O)c2ccc(C)c(-c3cnc4c(N)ncnn34)c2)cn1 [Example 244, N-(5-((3-(4-aminoimidazo[2,1-f][1,2,4]triazin-7-yl)-4-methylphenyl)sulfonamido)pyridin-2-yl)acetamide]
< 100 nM	Cc1ccncc1NS(=O)(=O)c1ccc(C)c(-c2cnc3c(N)ncnn23)c1 [Example 245, 3-(4-aminoimidazo[2,1-f][1,2,4]triazin-7-yl)-4-methyl-N-(4-methylpyridin-3-yl)benzenesulfonamide]
< 100 nM	COc1ccc(NS(=O)(=O)c2ccc(C)c(-c3cnc4c(N)ncnn34)c2)c(C)n1 [Example 246, 3-(4-aminoimidazo[2,1-f][1,2,4]triazin-7-yl)-N-(6-methoxy-2-methylpyridin-3-yl)-4-methylbenzenesulfonamide]
< 100 nM	Cc1ccc(S(=O)(=O)N(C)c2ccncc2)cc1-c1cnc2c(N)ncnn12 [Example 247, 3-(4-aminoimidazo[2,1-f][1,2,4]triazin-7-yl)-N,4-dimethyl-N-(pyridin-4-yl)benzenesulfonamide]
< 100 nM	Cc1ccc(S(=O)(=O)Nc2ccnc(C#N)c2)cc1-c1cnc2c(N)ncnn12 [Example 248, 3-(4-aminoimidazo[2,1-f][1,2,4]triazin-7-yl)-N-(2-cyanopyridin-4-yl)-4-methylbenzenesulfonamide]
< 100 nM	Cc1ccc(S(=O)(=O)NCc2ccnn2C)cc1-c1cnc2c(N)nc(C(F)(F)F)nn12 [Example 357, 3-(4-amino-2-(trifluoromethyl)imidazo[2,1-f][1,2,4]triazin-7-yl)-4-methyl-N-((1-methyl-1H-pyrazol-5-yl)methyl)benzenesulfonamide]
< 100 nM	Cc1ccc(S(=O)(=O)NCc2cnccn2)cc1-c1cnc2c(N)nc(C(F)(F)F)nn12 [Example 358, 3-(4-amino-2-(trifluoromethyl)imidazo[2,1-f][1,2,4]triazin-7-yl)-4-methyl-N-(pyrazin-2-ylmethyl)benzenesulfonamide]
< 100 nM	Cc1ccc(S(=O)(=O)NC23CCCC(C#N)(C2)C3)cc1-c1cnc2c(N)ncnn12 [Example 520, 3-(4-Aminoimidazo[2,1-f][1,2,4]triazin-7-yl)-N-(5-cyanobicyclo[3.1.1]heptan-1-yl)-4-methylbenzenesulfonamide trifluoroacetate]
